Experiment: xn = mol fraction of the nth substance listed
Settings: 100 kPa, Liquid; for electrical conductivity: Alternating current cell with electrodes; for mass density: Vibrating tube method; for viscosity: Capillary tube (Ostwald / Ubbelohde) method

CCCC[N+]1(C)CCCC1.N#CN=C=[N-] [1-butyl-1-methylpyrrolidinium dicyanamide] + O=C1CCCO1
Settings	electrical conductivity [S/m]
313.15 K, Frequency=0.00694444 MHz, x1 = 0.4985	2.88
313.15 K, Frequency=0.00694444 MHz, x1 = 0.6954	2.43
313.15 K, Frequency=0.00694444 MHz, x1 = 0.9013	2.09
313.15 K, Frequency=0.00694444 MHz, x1 = 1	2
313.15 K, Frequency=0.0075 MHz, x1 = 0.0463	1.79
313.15 K, Frequency=0.0075 MHz, x1 = 0.0987	2.73
313.15 K, Frequency=0.0075 MHz, x1 = 0.1449	3.13
313.15 K, Frequency=0.0075 MHz, x1 = 0.1859	3.37
313.15 K, Frequency=0.0075 MHz, x1 = 0.2493	3.36
313.15 K, Frequency=0.0075 MHz, x1 = 0.3029	3.321
313.15 K, Frequency=0.0075 MHz, x1 = 0.3845	3.16
313.15 K, Frequency=0.0075 MHz, x1 = 0.4985	2.88
313.15 K, Frequency=0.0075 MHz, x1 = 0.6954	2.43
313.15 K, Frequency=0.0075 MHz, x1 = 0.9013	2.09
313.15 K, Frequency=0.0075 MHz, x1 = 1	2
313.15 K, Frequency=0.008 MHz, x1 = 0.0463	1.79
313.15 K, Frequency=0.008 MHz, x1 = 0.0987	2.73
313.15 K, Frequency=0.008 MHz, x1 = 0.1449	3.13
313.15 K, Frequency=0.008 MHz, x1 = 0.1859	3.37
313.15 K, Frequency=0.008 MHz, x1 = 0.2493	3.36
313.15 K, Frequency=0.008 MHz, x1 = 0.3029	3.321
313.15 K, Frequency=0.008 MHz, x1 = 0.3845	3.16
313.15 K, Frequency=0.008 MHz, x1 = 0.4985	2.88
313.15 K, Frequency=0.008 MHz, x1 = 0.6954	2.43
313.15 K, Frequency=0.008 MHz, x1 = 0.9013	2.09
313.15 K, Frequency=0.008 MHz, x1 = 1	2
313.15 K, Frequency=0.00857143 MHz, x1 = 0.0463	1.79
313.15 K, Frequency=0.00857143 MHz, x1 = 0.0987	2.73
313.15 K, Frequency=0.00857143 MHz, x1 = 0.1449	3.13
313.15 K, Frequency=0.00857143 MHz, x1 = 0.1859	3.37
313.15 K, Frequency=0.00857143 MHz, x1 = 0.2493	3.36
313.15 K, Frequency=0.00857143 MHz, x1 = 0.3029	3.321
313.15 K, Frequency=0.00857143 MHz, x1 = 0.3845	3.16
313.15 K, Frequency=0.00857143 MHz, x1 = 0.4985	2.88
313.15 K, Frequency=0.00857143 MHz, x1 = 0.6954	2.43
313.15 K, Frequency=0.00857143 MHz, x1 = 0.9013	2.09
313.15 K, Frequency=0.00857143 MHz, x1 = 1	2
313.15 K, Frequency=0.00892857 MHz, x1 = 0.0463	1.79
313.15 K, Frequency=0.00892857 MHz, x1 = 0.0987	2.73
313.15 K, Frequency=0.00892857 MHz, x1 = 0.1449	3.13
313.15 K, Frequency=0.00892857 MHz, x1 = 0.1859	3.37
313.15 K, Frequency=0.00892857 MHz, x1 = 0.2493	3.36
313.15 K, Frequency=0.00892857 MHz, x1 = 0.3029	3.321
313.15 K, Frequency=0.00892857 MHz, x1 = 0.3845	3.16
313.15 K, Frequency=0.00892857 MHz, x1 = 0.4985	2.88
313.15 K, Frequency=0.00892857 MHz, x1 = 0.6954	2.43
313.15 K, Frequency=0.00892857 MHz, x1 = 0.9013	2.09
313.15 K, Frequency=0.00892857 MHz, x1 = 1	2
313.15 K, Frequency=0.00961538 MHz, x1 = 0.0463	1.79
313.15 K, Frequency=0.00961538 MHz, x1 = 0.0987	2.73
313.15 K, Frequency=0.00961538 MHz, x1 = 0.1449	3.13
313.15 K, Frequency=0.00961538 MHz, x1 = 0.1859	3.37
313.15 K, Frequency=0.00961538 MHz, x1 = 0.2493	3.36
313.15 K, Frequency=0.00961538 MHz, x1 = 0.3029	3.322
313.15 K, Frequency=0.00961538 MHz, x1 = 0.3845	3.16
313.15 K, Frequency=0.00961538 MHz, x1 = 0.4985	2.88
313.15 K, Frequency=0.00961538 MHz, x1 = 0.6954	2.43
313.15 K, Frequency=0.00961538 MHz, x1 = 0.9013	2.09
313.15 K, Frequency=0.00961538 MHz, x1 = 1	2
313.15 K, Frequency=0.01 MHz, x1 = 0.0463	1.79
313.15 K, Frequency=0.01 MHz, x1 = 0.0987	2.73
313.15 K, Frequency=0.01 MHz, x1 = 0.1449	3.13
313.15 K, Frequency=0.01 MHz, x1 = 0.1859	3.37
313.15 K, Frequency=0.01 MHz, x1 = 0.2493	3.36
313.15 K, Frequency=0.01 MHz, x1 = 0.3029	3.322
313.15 K, Frequency=0.01 MHz, x1 = 0.3845	3.16
313.15 K, Frequency=0.01 MHz, x1 = 0.4985	2.88
313.15 K, Frequency=0.01 MHz, x1 = 0.6954	2.43
313.15 K, Frequency=0.01 MHz, x1 = 0.9013	2.09
313.15 K, Frequency=0.01 MHz, x1 = 1	2
323.15 K, Frequency=0.0005 MHz, x1 = 0.0463	1.99
323.15 K, Frequency=0.0005 MHz, x1 = 0.0987	3.06
323.15 K, Frequency=0.0005 MHz, x1 = 0.1449	3.56
323.15 K, Frequency=0.0005 MHz, x1 = 0.1859	3.816
323.15 K, Frequency=0.0005 MHz, x1 = 0.2493	3.88
323.15 K, Frequency=0.0005 MHz, x1 = 0.3029	3.85
323.15 K, Frequency=0.0005 MHz, x1 = 0.3845	3.726
323.15 K, Frequency=0.0005 MHz, x1 = 0.4985	3.45
323.15 K, Frequency=0.0005 MHz, x1 = 0.6954	2.99
323.15 K, Frequency=0.0005 MHz, x1 = 0.9013	2.622
323.15 K, Frequency=0.0005 MHz, x1 = 1	2.525
323.15 K, Frequency=0.001 MHz, x1 = 0.0463	2

Settings	electrical conductivity, 323.15 K [S/m]	mass density, 313.15 K [kg/m3]	viscosity, 323.15 K [mPa·s]
x1 = 0.0463	2.01	–	–
x1 = 0.0987	3.08	1090.51	1.87
x1 = 0.1449	3.57	–	–
x1 = 0.1859	3.85	1075.67	2.58
x1 = 0.2493	3.89	–	–
x1 = 0.3029	3.88	1059.04	3.77
x1 = 0.3845	3.74	–	–
x1 = 0.4985	3.46	1037.83	6.36
x1 = 0.6954	2.99	1022.16	9.69
x1 = 0.9013	2.633	1009.87	13.92
x1 = 1	2.529	1005.06	16.15
